Results reported in US8916565B2, “Pyrrolopyrazine-spirocyclic piperidine amides as modulators of ion channels” (priority 2011, dated 2014).

Target: human NaV subtype, like NaV 1.7 (Homo sapiens, UniProt Q15858)
Experiment: E-VIPR optical membrane potential assay with electrical stimulation
Assay type: cell-based
Settings: active against one or more sodium channels; Table 3 does not name the assay or NaV subtype; read-out: Binned Activity Data (IC50)

Sequence of human NaV subtype, like NaV 1.7 (Q15858 whole entry): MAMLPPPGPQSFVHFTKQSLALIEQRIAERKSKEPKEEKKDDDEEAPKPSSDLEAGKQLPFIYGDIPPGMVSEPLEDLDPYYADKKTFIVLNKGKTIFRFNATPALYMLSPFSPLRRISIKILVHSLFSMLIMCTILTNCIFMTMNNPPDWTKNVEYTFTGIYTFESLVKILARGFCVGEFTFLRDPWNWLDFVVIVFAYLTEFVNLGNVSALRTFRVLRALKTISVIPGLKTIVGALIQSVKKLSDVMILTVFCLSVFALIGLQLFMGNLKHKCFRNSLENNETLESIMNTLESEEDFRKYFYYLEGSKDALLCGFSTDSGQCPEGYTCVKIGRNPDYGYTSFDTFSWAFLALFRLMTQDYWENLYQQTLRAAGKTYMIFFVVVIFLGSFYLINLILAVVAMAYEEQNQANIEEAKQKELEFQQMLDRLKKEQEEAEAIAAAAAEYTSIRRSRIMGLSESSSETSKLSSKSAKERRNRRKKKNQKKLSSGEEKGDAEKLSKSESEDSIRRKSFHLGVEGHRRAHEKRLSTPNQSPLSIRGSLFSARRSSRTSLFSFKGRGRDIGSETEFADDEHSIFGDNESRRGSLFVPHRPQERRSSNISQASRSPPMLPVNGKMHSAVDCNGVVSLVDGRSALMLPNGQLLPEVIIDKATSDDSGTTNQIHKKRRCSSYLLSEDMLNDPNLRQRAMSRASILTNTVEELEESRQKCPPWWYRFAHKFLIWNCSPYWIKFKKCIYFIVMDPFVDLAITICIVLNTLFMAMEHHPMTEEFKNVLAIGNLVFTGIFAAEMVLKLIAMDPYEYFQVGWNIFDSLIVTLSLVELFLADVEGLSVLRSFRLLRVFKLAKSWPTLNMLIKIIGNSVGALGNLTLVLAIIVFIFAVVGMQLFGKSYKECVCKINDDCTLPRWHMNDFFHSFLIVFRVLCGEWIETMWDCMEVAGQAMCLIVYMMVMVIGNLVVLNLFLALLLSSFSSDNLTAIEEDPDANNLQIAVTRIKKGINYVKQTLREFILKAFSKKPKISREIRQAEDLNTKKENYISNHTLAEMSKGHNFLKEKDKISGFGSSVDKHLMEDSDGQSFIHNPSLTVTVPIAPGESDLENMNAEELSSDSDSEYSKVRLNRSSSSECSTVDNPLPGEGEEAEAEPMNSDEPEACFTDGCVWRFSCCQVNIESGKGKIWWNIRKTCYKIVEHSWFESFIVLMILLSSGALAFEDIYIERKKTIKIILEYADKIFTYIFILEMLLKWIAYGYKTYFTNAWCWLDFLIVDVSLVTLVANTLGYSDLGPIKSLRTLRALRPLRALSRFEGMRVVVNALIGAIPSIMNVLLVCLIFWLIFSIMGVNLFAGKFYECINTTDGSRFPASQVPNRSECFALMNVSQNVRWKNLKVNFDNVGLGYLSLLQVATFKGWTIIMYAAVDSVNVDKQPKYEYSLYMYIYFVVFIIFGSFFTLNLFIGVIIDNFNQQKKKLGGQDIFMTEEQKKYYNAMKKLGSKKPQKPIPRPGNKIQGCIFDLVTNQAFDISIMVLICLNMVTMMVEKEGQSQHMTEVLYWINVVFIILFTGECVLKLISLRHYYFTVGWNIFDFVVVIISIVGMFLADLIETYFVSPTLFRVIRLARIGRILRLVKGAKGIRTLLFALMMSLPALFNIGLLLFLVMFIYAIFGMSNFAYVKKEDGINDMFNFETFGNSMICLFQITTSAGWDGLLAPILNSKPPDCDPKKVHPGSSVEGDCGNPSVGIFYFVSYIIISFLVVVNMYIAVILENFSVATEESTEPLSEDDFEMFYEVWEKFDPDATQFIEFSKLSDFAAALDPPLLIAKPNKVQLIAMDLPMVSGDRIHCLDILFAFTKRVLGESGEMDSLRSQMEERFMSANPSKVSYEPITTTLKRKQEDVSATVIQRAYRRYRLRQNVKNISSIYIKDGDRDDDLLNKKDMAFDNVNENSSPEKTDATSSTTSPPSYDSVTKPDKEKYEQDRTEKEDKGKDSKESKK

`CN1CCn2c(C(=O)C(C)(C)C)ccc2C12CCN(C(=O)c1ccc(S(=O)(=O)NC3CC3)cc1)CC2` [Compound 274] showed an IC50 of no more than 2000 nM.
`CCCCc1ccc(C(=O)N2CCC3(CC2)c2ccc(Cl)n2CCN3C)cc1` [Compound 275] was tested, and the IC50 was 2000 to 5000 nM.
In the case of `COc1ccc(C(=O)N2CCC3(CC2)c2ccc(C(=O)C4(C)CC4)n2CCN3C)cc1C` [Compound 276], the IC50 is reported as no more than 2000 nM.
`CC(=O)c1ccc2n1CC(C)(C)NC21CCN(C(=O)c2ccc(OC(C)C)c(Cl)c2)CC1` [Compound 277] was tested, and the IC50 was no more than 2000 nM.
For `CCc1ccc(C(=O)N2CCC3(CC2)c2ccc(C(C)=O)n2CCN3C)cc1` [Compound 278], the IC50 was greater than 5000 nM.
In the case of `Cc1cc(C(=O)N2CCC3(CC2)c2ccc(CC(F)(F)F)n2CCN3C)ccc1OC(C)C` [Compound 279], the IC50 is reported as no more than 2000 nM.
`Cc1cc(C(=O)N2CCC3(CC2)NCC(C)(C)n2c(C(F)(F)F)ccc23)ccc1OC(C)C` [Compound 280] showed an IC50 of no more than 2000 nM.
For `CN1CCn2c(C(F)(F)F)ccc2C12CCN(C(=O)c1cccc3cccnc13)CC2` [Compound 281], the IC50 was no more than 2000 nM.
For `COc1ccc(C(=O)N2CCC3(CC2)c2ccc(C(=O)C4(C)CC4)n2CCN3C)cc1C(F)(F)F` [Compound 282], the IC50 was no more than 2000 nM.
In the case of `CNS(=O)(=O)c1ccc(C(=O)N2CCC3(CC2)NCCn2c(C(F)(F)F)ccc23)cc1C` [Compound 283], the IC50 is reported as 2000 to 5000 nM.
In the case of `CC(C)CCOc1ccc(C(=O)N2CCC3(CC2)NCC(C)n2c(C(=O)C(F)(F)F)ccc23)cc1` (stereo not drawn) [Compound 284], the IC50 is reported as no more than 2000 nM.
In the case of `CC(=O)c1ccc2n1CCN(C)C21CCN(C(=O)c2ccc(OC(C)C)c(C#N)c2)CC1` [Compound 285], the IC50 is reported as 2000 to 5000 nM.
`CC(=O)c1ccc2n1CC(C)(C)NC21CCN(C(=O)c2ccc(OC(C)C)cc2F)CC1` [Compound 286] showed an IC50 of no more than 2000 nM.
For `CN1CCn2c(C(=O)C(F)(F)F)ccc2C12CCN(C(=O)c1ccc(-c3ccccc3)c(O)c1)CC2` [Compound 287], the IC50 was 2000 to 5000 nM.
In the case of `COc1cc(C(=O)N2CCC3(CC2)c2ccc(C(=O)C(F)(F)F)n2CCN3C)ccc1COCCC(F)(F)F` [Compound 288], the IC50 is reported as no more than 2000 nM.
Molecule `CN1CCn2c(ccc2C(F)(F)C(F)(F)F)C12CCN(C(=O)c1ccc(S(=O)(=O)NC3CC3)cc1)CC2` [Compound 289] has an IC50 of no more than 2000 nM.
With `CC(C)c1ccc(C(=O)N2CCC3(CC2)c2ccc(C(=O)C(F)(F)F)n2CCN3C)cc1` [Compound 290] the IC50 was no more than 2000 nM.
Work on `Cc1cc(C(=O)N2CCC3(CC2)c2ccc(C(=O)C(F)(F)F)n2CCN3C)cnc1OC(C)C` [Compound 291] yielded an IC50 of no more than 2000 nM.
For `CCCc1ccc(C(=O)N2CCC3(CC2)c2ccc(C(C)=O)n2CCN3C)cc1` [Compound 292], the IC50 was greater than 5000 nM.
`CCC(c1ccc(F)cc1)n1cc(C(=O)N2CCC3(CC2)c2ccc(C(F)(F)F)n2CCN3C)nn1` (stereo not drawn) [Compound 293] was tested, and the IC50 was greater than 5000 nM.
Molecule `CC[C@@H](C)Oc1ccc(C(=O)N2CCC3(CC2)c2ccc(Cl)n2CCN3C)cc1OC` [Compound 294] has an IC50 of no more than 2000 nM.
Work on `Cc1cc(C(=O)N2CCC3(CC2)c2ccc(C(=O)C(F)(F)F)n2CCN3C)ccc1-c1ccn(C)n1` [Compound 295] yielded an IC50 greater than 5000 nM.
In the case of `CCOC(=O)N1CCn2c(C#N)ccc2C12CCN(C(=O)c1ccc(OC(C)C)c(Cl)c1)CC2` [Compound 296], the IC50 is reported as no more than 2000 nM.
`CCOc1ncccc1C(=O)N1CCC2(CC1)c1ccc(C(F)(F)F)n1CCN2C` [Compound 297] gave an IC50 of no more than 2000 nM.
`CCS(=O)(=O)c1ccc(C(=O)N2CCC3(CC2)c2ccc(C(F)(F)F)n2CCN3C)cc1C` [Compound 298] gave an IC50 of no more than 2000 nM.
With `COc1cc(C(=O)N2CCC3(CC2)c2ccc(C(F)(F)C(F)(F)F)n2CCN3C)ccc1OC(C)(C)C` [Compound 299] the IC50 was no more than 2000 nM.
`C[C@H]1Cn2c(C(=O)C(F)(F)F)ccc2C2(CCN(C(=O)c3ccc(S(=O)(=O)C(C)(C)C)cc3)CC2)N1C` [Compound 300] showed an IC50 of no more than 2000 nM.
`CN1CCn2c(Cl)ccc2C12CCN(C(=O)c1ccc(C3(O)CCCC3)cc1)CC2` [Compound 301] was tested, and the IC50 was greater than 5000 nM.
`CN1CCn2c(ccc2S(C)(=O)=O)C12CCN(C(=O)c1ccc(C3CCCCC3)cc1)CC2` [Compound 302] was tested, and the IC50 was 2000 to 5000 nM.
`Cc1cc(C(=O)N2CCC3(CC2)c2ccc(C(=O)C(F)(F)F)n2CCN3C)ccc1-c1c[nH]nc1C(F)(F)F` [Compound 303] gave an IC50 greater than 5000 nM.
`CC(=O)c1ccc2n1CCN(C)C21CCN(C(=O)c2ccc(-c3ccccc3)c(C)c2)CC1` [Compound 304] was tested, and the IC50 was no more than 2000 nM.
`CN1CCn2c(C(F)(F)F)ccc2C12CCN(C(=O)c1cccnc1N1CCCC1)CC2` [Compound 305] was tested, and the IC50 was no more than 2000 nM.
For `COc1cc(C(=O)N2CCC3(CC2)N[C@@H](C)Cn2c(C(F)(F)F)ccc23)ccc1OC(C)C` [Compound 306], the IC50 was 2000 to 5000 nM.
For `Cc1cc(C(=O)N2CCC3(CC2)c2ccc(C(F)(F)F)n2CCN3C2CC2)ccc1C(C)(C)O` [Compound 307], the IC50 was no more than 2000 nM.
Work on `Cc1cc(C(=O)N2CCC3(CC2)N[C@H](C)Cn2c(C(F)(F)F)ccc23)ccc1OC(C)C` [Compound 308] yielded an IC50 of no more than 2000 nM.
In the case of `CC(=O)c1ccc2n1CCN(C)C21CCN(C(=O)c2ccc(C3(O)CCCC3)cc2)CC1` [Compound 309], the IC50 is reported as greater than 5000 nM.
`CC1CCN(S(=O)(=O)c2ccc(C(=O)N3CCC4(CC3)c3ccc(Cl)n3CCN4C)cc2)CC1` [Compound 310] gave an IC50 greater than 5000 nM.
`Cc1cc(C(=O)N2CCC3(CC2)c2ccc(C(=O)C(F)(F)F)n2C(C)CN3C)ccc1C(C)(C)O` (stereo not drawn) [Compound 311] was tested, and the IC50 was no more than 2000 nM.
Molecule `COc1ccc(C(=O)N2CCC3(CC2)NC(C)(C)Cn2c(C(=O)C(F)(F)F)ccc23)c(F)c1` [Compound 312] has an IC50 of no more than 2000 nM.
For `CN1CCn2c(C(F)(F)F)cc(F)c2C12CCN(C(=O)c1ccc(CC(C)(C)O)cc1)CC2` [Compound 313], the IC50 was no more than 2000 nM.
Work on `COc1ccc(C(=O)N2CCC3(CC2)c2ccc(C(=O)C(C)(C)C)n2CCN3C)cc1C` [Compound 314] yielded an IC50 of no more than 2000 nM.
Work on `COc1cc(C(=O)N2CCC3(CC2)c2ccc(C(=O)C(F)(F)F)n2CCN3C)ccc1OC(C)C` [Compound 315] yielded an IC50 of no more than 2000 nM.
For `C=C(C)c1ccc(C(=O)N2CCC3(CC2)c2ccc(C(F)(F)F)n2CCN3C)cc1C` [Compound 316], the IC50 was no more than 2000 nM.
`COc1cc(C(=O)N2CCC3(CC2)c2ccc(C(F)(F)F)n2CCN3C2CCC2)ccc1OC(C)C` [Compound 317] showed an IC50 of 2000 to 5000 nM.
`Cc1cc(C(=O)N2CCC3(CC2)NC(C)(C)Cn2c(C(=O)C(F)(F)F)ccc23)ccc1O` [Compound 318] was tested, and the IC50 was no more than 2000 nM.
With `Cc1ccc(C(=O)N2CCC3(CC2)c2ccc(C(F)(F)F)n2CCN3C)cc1` [Compound 319] the IC50 was greater than 5000 nM.
Molecule `COc1cc(C(=O)N2CCC3(CC2)NC(C)Cn2c(C(F)(F)F)ccc23)ccc1OC(C)C` (stereo not drawn) [Compound 320] has an IC50 of no more than 2000 nM.
`COc1ccc(C(=O)N2CCC3(CC2)c2ccc(C(F)(F)F)n2CCN3C)cc1OC` [Compound 321] was tested, and the IC50 was greater than 5000 nM.
For `Cc1nc(C(=O)N2CCC3(CC2)c2ccc(C(=O)C(F)(F)F)n2CCN3C)ccc1O` [Compound 322], the IC50 was no more than 2000 nM.
`CN1CCn2c(Cl)ccc2C12CCN(C(=O)c1ccc(OC(F)(F)F)cc1)CC2` [Compound 323] showed an IC50 greater than 5000 nM.
`CC(C)Oc1ccc(C(=O)N2CCC3(CC2)NCC(C)n2c(C(=O)C(F)(F)F)ccc23)cc1Cl` (stereo not drawn) [Compound 324] gave an IC50 of no more than 2000 nM.
`CC(C)Oc1ccc(C(=O)N2CCC3(CC2)c2ccc(C(=O)C(F)(F)F)n2C(C)CN3C)cc1Cl` (stereo not drawn) [Compound 325] gave an IC50 of no more than 2000 nM.
`Cc1cc(C(=O)N2CCC3(CC2)c2ccc(C(F)(F)C(F)(F)F)n2CCN3C)ccc1S(=O)(=O)C(C)C` [Compound 326] was tested, and the IC50 was no more than 2000 nM.
With `COc1cc(C(=O)N2CC[C@@]3(c4ccc(C(F)(F)F)n4CCN3C)[C@H](F)C2)ccc1OC(C)C` [Compound 327] the IC50 was no more than 2000 nM.
